According to US20250222146A1, “Radiopharmaceuticals Targeting Somatostatin Receptor 2 and Uses Thereof” (RayzeBio, Inc., priority 2023, published 2025):
Like-named read-outs stand apart in the source and are kept apart here. Numbered stars: 1 amine (or outer) side, 2 acyl side, 3 side chain; on linkers, the order of the positions; unused ones are H or OH. Square brackets hold non-standard residues; d marks the D form. Side chains are listed from the residue outwards. Peptide text beside a SMILES is read from it. * marks the point of attachment. X6 = O=C(CN1CCN2CCN3CCN(CC1)CC(=O)[O][Lu]([O]C(=O)C2)[O]C(=O)C3)NCCOCCOCCOCCNC(=O)C*; X14 = O=C(CN1CCN2CCN3CCN(CC1)CC(=O)[O][Lu]([O]C(=O)C2)[O]C(=O)C3)NCC1CCC(C(=O)*)CC1; DOTA(Lu) = O=C1CN2CCN3CCN(CC(=O)*)CCN(CC2)CC(=O)[O][Lu]([O]1)[O]C(=O)C3; Ala(piperidin-4-yl) = O=C([C@H](CC1CCN([*:3])CC1)N[*:1])[*:2]; dTrp(βS-Me) = C[C@@H](c1c[nH]c2ccccc12)[C@@H](N)C(=O)O; NMehCys = CN[C@@H](CCS)C(=O)O; NMeK = CN[C@@H](CCCCN)C(=O)O; NMeDap = CN[C@@H](CN)C(=O)O; Ahx = NCCCCCC(=O)O

Columns and labels:
SSTR2 = SSTR2 (Homo sapiens, UniProt P30874); assay: SSTR binding affinity by radioligand binding competition assay ([125I]-Tyr11-Somatostatin, membrane extracts); conditions: radioligand competition, [125I]-Tyr11-Somatostatin 0.1 nM, membrane extracts, Ki from IC50 by Cheng Prusoff
[1] = Peptide conjugate biodistribution measured by tissue PK (ICP-MS, % ID/g in kidney tissue at 2 h); format: in vivo; conditions: 2 h time point, mouse
Experimental: Macrocyclic peptides and conjugates described herein were tested for tissue distribution by measuring concentrations in tissues by MS using in vivo animal models. Peptide metal chelates were dosed to animals and tissues were collected at specific time points based off the peptide PK profile. The samples were then analyzed by MS and the results reported as % ID/g (% injected dose/gram). Radiopharmaceutical conjugates of the present disclosure have improved tissue distribution for radiopharmaceutical therapeutics.
Peptide metal chelate doses were suspended in phosphate-buffered saline (PBS) containing 0.1% Tween 80. An injection volume of 100 μL per mouse was used, and blood and tissue samples were collected, weighed, and stored frozen at-80° C. until analysis. Tissue samples were digested with concentrated nitric acid in a microwave digestion apparatus. The sample digest was diluted with internal standard and analyzed using inductively coupled plasma mass spectrometry (ICP-MS). ICP-MS is an elemental analysis technique used to measure elements by using argon plasma to convert the sample into ions that are then measured using the mass spectrometer. Calibration standards were used for quantification of element(s) of interest by constructing a multipoint standard curve covering the range of analyte concentrations anticipated in the samples (typical range is 500 ppt to 0.1 ppt). A single quadrupole instrument (iCAP RQ, Thermo Fisher) ICP-MS was coupled with a Teledyne CETAC autosampler and used for the sample analysis.
The % ID/g of conjugate in kidney tissue at the 2-hour time point (2 h) was quantified for various conjugates, and the results are shown in Table 10. Lower kidney tissue % ID/g values indicate lower distribution to the kidney after administration of the conjugate.

SSTR2, sequence (P30874 whole entry): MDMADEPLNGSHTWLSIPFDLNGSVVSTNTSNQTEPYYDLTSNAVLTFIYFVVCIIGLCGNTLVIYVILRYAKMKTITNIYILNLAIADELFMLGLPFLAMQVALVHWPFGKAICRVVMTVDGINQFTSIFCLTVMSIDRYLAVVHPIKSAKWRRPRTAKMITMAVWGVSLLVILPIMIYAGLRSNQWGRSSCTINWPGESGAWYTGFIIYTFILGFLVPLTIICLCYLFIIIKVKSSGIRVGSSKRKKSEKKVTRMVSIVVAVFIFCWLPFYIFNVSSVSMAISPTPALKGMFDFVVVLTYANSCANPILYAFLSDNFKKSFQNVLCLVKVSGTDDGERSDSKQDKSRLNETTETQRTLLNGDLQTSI

## CC(C)[C@@H]1NC(=O)[C@H](CCCCN)NC(=O)[C@@H](Cc2c[nH]c3ccccc23)NC(=O)[C@H](Cc2ccc(O)cc2)NC(=O)[C@H](CCSCC(=O)NCCOCCOCCOCCNC(=O)CN2CCN3CCN4CCN(CC2)CC(=O)[O][Lu]([O]C(=O)C3)[O]C(=O)C4)N(C)C(=O)[C@H](Cc2ccccc2)NC1=O [RB-0004823] (cyclo(F[NMehCys](X6)Y[dW]KV))
SSTR2; read-out: SSTR2 Ki
  Ki: < 1 nM

## C[C@@H](O)[C@@H]1NC(=O)[C@H](CCCCN)NC(=O)[C@@H](Cc2c[nH]c3ccccc23)NC(=O)[C@H](Cc2ccc(O)cc2)NC(=O)[C@H](CCSCC(=O)N[C@H](CCCCNC(=O)CN2CCN3CCN4CCN(CC2)CC(=O)[O][Lu]([O]C(=O)C3)[O]C(=O)C4)C(=O)O)N(C)C(=O)[C@H](Cc2ccccc2)NC1=O [RB-0005276]
SSTR2; read-out: SSTR2 Ki
  Ki: 1 to 3.33 nM

## C[C@@H](O)[C@@H]1NC(=O)[C@H](CC2CCNCC2)NC(=O)[C@@H]([C@@H](C)c2c[nH]c3ccccc23)NC(=O)[C@H](Cc2ccc(O)cc2)NC(=O)[C@H](CCCCNC(=O)C2CCC(CNC(=O)CN3CCN4CCN5CCN(CC3)CC(=O)[O][Lu]([O]C(=O)C4)[O]C(=O)C5)CC2)N(C)C(=O)[C@H](Cc2ccccc2)NC1=O (stereo partly shown) [RB-0006464] (cyclo(F[NMeK](X14)Y[dTrp(βS-Me)][Ala(piperidin-4-yl)]T))
SSTR2; read-out: SSTR2 Ki
  Ki: 1 to 3.33 nM

## C[C@@H](O)[C@@H]1NC(=O)[C@H](CC2CCNCC2)NC(=O)[C@@H]([C@@H](C)c2c[nH]c3ccccc23)NC(=O)[C@H](Cc2ccc(O)cc2)NC(=O)[C@H](CCCCn2cc(CNC(=O)CN3CCN4CCN5CCN(CC3)CC(=O)[O][Lu]([O]C(=O)C4)[O]C(=O)C5)nn2)N(C)C(=O)[C@H](Cc2ccccc2)NC1=O [RB-0006591]
SSTR2; read-out: SSTR2 Ki
  Ki: 3.33 to 10 nM

## C[C@@H](O)[C@@H]1NC(=O)[C@H](CCCCN)NC(=O)[C@@H](Cc2c[nH]c3ccccc23)NC(=O)[C@H](Cc2ccc(O)cc2)NC(=O)[C@H](CNC(=O)C[C@H](NC(=O)CCCCCNC(=O)CN2CCN3CCN4CCN(CC2)CC(=O)[O][Lu]([O]C(=O)C3)[O]C(=O)C4)C(=O)O)N(C)C(=O)[C@H](Cc2ccccc2)NC1=O [RB-0005732]
SSTR2; read-out: SSTR2 Ki
  Ki: 33.3 to 100 nM

## C[C@@H](O)[C@@H]1NC(=O)[C@H](CCCCN)NC(=O)[C@@H](Cc2c[nH]c3ccccc23)NC(=O)[C@H](Cc2ccc(O)cc2)NC(=O)[C@H](CCCCNC(=O)[C@H]2CC[C@H](CNC(=O)CN3CCN4CCN5CCN(CC3)CC(=O)[O][Lu]([O]C(=O)C4)[O]C(=O)C5)CC2)N(C)C(=O)[C@H](Cc2ccccc2)NC1=O [RB-0003246]
SSTR2; SSTR2 Ki
  Ki: 1 to 3.33 nM

## C[C@@H](O)[C@@H]1NC(=O)[C@H](CC2CCNCC2)NC(=O)[C@@H]([C@@H](C)c2c[nH]c3ccccc23)NC(=O)[C@H](Cc2ccc(O)cc2)NC(=O)[C@H](CCCCNC(=O)CN2CCN3CCN4CCN(CC2)CC(=O)[O][Lu]([O]C(=O)C3)[O]C(=O)C4)N(C)C(=O)[C@H](Cc2ccccc2)NC1=O [RB-0006176] (cyclo(F[NMeK](DOTA(Lu))Y[dTrp(βS-Me)][Ala(piperidin-4-yl)]T))
[1]
  tissue uptake at 2 h: 1.6 %ID/g

## C[C@@H](O)[C@@H]1NC(=O)[C@H](CC2CCNCC2)NC(=O)[C@@H]([C@@H](C)c2c[nH]c3ccccc23)NC(=O)[C@H](Cc2ccc(O)cc2)NC(=O)[C@H](CNC(=O)[C@H](CC(=O)O)NC(=O)CCCCCNC(=O)CN2CCN3CCN4CCN(CC2)CC(=O)[O][Lu]([O]C(=O)C3)[O]C(=O)C4)N(C)C(=O)[C@H](Cc2ccccc2)NC1=O [RB-0006158] (cyclo(F[NMeDap]([Asp-Ahx-DOTA(Lu)])Y[dTrp(βS-Me)][Ala(piperidin-4-yl)]T))
SSTR2; read-out: SSTR2 Ki
  Ki: 1 to 3.33 nM

## C[C@@H]1NC(=O)[C@H](CC2CCNCC2)NC(=O)[C@@H]([C@@H](C)c2c[nH]c3ccccc23)NC(=O)[C@H](Cc2ccc(O)cc2)NC(=O)[C@H](CCCCNC(=O)CN2CCN3CCN4CCN(CC2)CC(=O)[O][Lu]([O]C(=O)C3)[O]C(=O)C4)N(C)C(=O)[C@H](Cc2ccccc2)NC1=O [RB-0006319] (cyclo(AF[NMeK](DOTA(Lu))Y[dTrp(βS-Me)][Ala(piperidin-4-yl)]))
SSTR2; read-out: SSTR2 Ki
  Ki: < 1 nM

## C[C@@H](O)[C@@H]1NC(=O)[C@H](CCCCN)NC(=O)[C@H](Cc2c[nH]c3ccccc23)NC(=O)[C@H](Cc2ccc(O)cc2)NC(=O)[C@H](CCSCC(=O)NCCCCCCNC(=O)CN2CCN3CCN4CCN(CC2)CC(=O)[O][Lu]([O]C(=O)C3)[O]C(=O)C4)N(C)C(=O)[C@H](Cc2ccccc2)NC1=O [RB-0005858]
SSTR2; SSTR2 Ki
  Ki: 1 to 3.33 nM
